Three molecules from ChEMBL document CHEMBL1144406 (J Med Chem, 2005) can be followed below.

The target of experiment [1] is T1, Prostaglandin D2 receptor (Homo sapiens, UniProt Q13258).
T1 sequence (Q13258 whole entry): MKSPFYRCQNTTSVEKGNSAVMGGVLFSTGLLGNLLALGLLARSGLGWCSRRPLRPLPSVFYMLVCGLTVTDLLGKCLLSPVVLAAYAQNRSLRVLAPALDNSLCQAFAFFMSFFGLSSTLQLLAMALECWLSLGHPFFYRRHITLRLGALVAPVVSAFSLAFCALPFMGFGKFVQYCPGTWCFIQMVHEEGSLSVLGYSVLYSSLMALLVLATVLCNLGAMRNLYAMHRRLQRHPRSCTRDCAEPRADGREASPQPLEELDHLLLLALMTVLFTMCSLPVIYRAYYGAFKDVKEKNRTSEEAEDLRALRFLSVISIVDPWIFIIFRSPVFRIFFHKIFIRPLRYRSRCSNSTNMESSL
The experiment can be described thus: Inhibition of [3H]-PGD-2 binding to human Prostaglandin D2 receptor.

Experiment [2] deals with T2, Thromboxane A2 receptor (Homo sapiens, UniProt P21731).
T2 sequence (P21731 whole entry): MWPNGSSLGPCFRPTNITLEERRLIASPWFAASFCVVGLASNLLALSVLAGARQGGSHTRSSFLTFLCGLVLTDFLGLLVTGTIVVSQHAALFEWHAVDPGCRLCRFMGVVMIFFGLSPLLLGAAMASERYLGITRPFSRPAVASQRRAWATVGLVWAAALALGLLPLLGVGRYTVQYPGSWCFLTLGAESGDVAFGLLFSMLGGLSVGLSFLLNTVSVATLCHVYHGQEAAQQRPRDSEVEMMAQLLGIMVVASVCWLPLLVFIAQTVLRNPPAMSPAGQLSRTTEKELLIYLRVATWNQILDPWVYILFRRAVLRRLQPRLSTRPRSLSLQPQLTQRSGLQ
Kind of experiment: Inhibition of [3H]SQ-29,548 binding to human Thromboxane A2 receptor.

The target of experiment [3] is T3, Prostaglandin D2 receptor 2 (Homo sapiens, UniProt Q9Y5Y4).
T3 sequence (Q9Y5Y4 whole entry): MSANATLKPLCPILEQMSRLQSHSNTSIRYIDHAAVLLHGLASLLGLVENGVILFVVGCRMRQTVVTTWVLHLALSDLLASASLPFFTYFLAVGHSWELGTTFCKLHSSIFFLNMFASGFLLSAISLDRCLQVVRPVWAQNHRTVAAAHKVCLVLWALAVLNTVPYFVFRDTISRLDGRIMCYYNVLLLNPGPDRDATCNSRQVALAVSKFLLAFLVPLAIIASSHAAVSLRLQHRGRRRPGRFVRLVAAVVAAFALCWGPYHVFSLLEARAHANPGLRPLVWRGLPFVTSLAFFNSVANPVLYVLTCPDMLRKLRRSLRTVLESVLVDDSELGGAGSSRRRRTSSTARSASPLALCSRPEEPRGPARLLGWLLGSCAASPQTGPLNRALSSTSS
Kind of experiment: Inhibition of [3H]PGD-2 binding to human chemoattractant receptor-homologous molecule expressed on Th2 cells (CRTH2). Format: cell-based.

Experiment [4] addresses T1, Prostaglandin D2 receptor. Kind of experiment: Inhibition of PGD2-induced inositol phosphate formation at human Prostaglandin D2 receptor. Format: functional.
The target in experiment [5] is T3, Prostaglandin D2 receptor 2. Kind of experiment: Inhibition of beta-arrestin translocation at human chemoattractant receptor-homologous molecule expressed on TH2 cells in BRET assay. Format: functional, cell-based.
Experiment [6] shares this target. The experiment can be described thus: Inhibition of PGD2-induced inositol phosphate formation at human chemoattractant receptor-homologous molecule expressed on TH2 cells. It is filed as functional, cell-based.
In experiment [7] the target is T2, Thromboxane A2 receptor. Kind of experiment: Inhibition of U-46,619-induced inositol phosphate accumulation at human Thromboxane A2 receptor. It is filed as functional.
Experiment [8] addresses T2, Thromboxane A2 receptor. The experiment can be described thus: Inhibition of beta-arrestin translocation at human Thromboxane A2 receptor in BRET assay. Format: functional.

Regarding `O=C(O)Cn1c2c(c3ccccc31)C[C@H](NS(=O)(=O)c1ccc(F)cc1)CC2`, the figures for the Ki in experiment [1], in experiment [2] and in experiment [3] were 5300 nM, 540 nM and 0.51 nM, respectively. Also, the IC50 is greater than 10000 nM in experiment [4], 3.8 nM in experiment [5], 3.8 nM in experiment [6] and 1700 nM in experiment [7].

With `O=C(O)CCn1c2c(c3ccccc31)C[C@H](NS(=O)(=O)c1ccc(F)cc1)CC2` [RAMATROBAN], the Ki in experiment [1] is greater than 10000 nM; in experiment [2] it was 4.5 nM; in experiment [3], 4.3 nM. The IC50 was greater than 10000 nM in experiment [4]; 8.4 nM in experiment [8]; 28 nM in experiment [5]; 29 nM in experiment [6]; 9.6 nM in experiment [7].

As to `CN([C@@H]1CCc2c(c3ccccc3n2CCC(=O)O)C1)S(=O)(=O)c1ccc(F)cc1`, the Ki in experiment [1] was 6100 nM; in experiment [2] it was 3000 nM; in experiment [3] it was 1.9 nM. Also, the IC50 in experiment [4] was greater than 10000 nM; in experiment [5], 15 nM; in experiment [6], 26 nM; in experiment [7], 4600 nM.
